# Results as given in PubChem BioAssay AID248 (DTP/NCI, 2004).
# Values joined by “and” are separate entries in the source; they are usually repeats but may differ in a detail not shown here. Equal values may be shown once. Inconclusive results and toxic doses are left out.
# Test system: L1210 leukemia ip in BDF1 mice, survival T/C
# Experiment: NCI In Vivo Anticancer Drug Screen. Data for tumor model L1210 Leukemia (intraperitoneal) in B6D2F1 (BDF1) mice
# Details: endpoint: mean survival time, higher = longer survival
# Method in brief: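 Antitumor effect is assessed in tumor-bearing animals. Survival in the compound arm is compared with a vehicle-dosed control arm and expressed as their quotient.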
# [1] = dose: 100.0 mg/kg/injection, schedule: Q01DX001 (ip), vehicle: saline
smiles,measurement,setting,value
COC12C(COC(N)=O)C3=C(C(=O)C(C)=C(N)C3=O)N1CC1C2N1C (stereo not drawn),T/C,"dose: 0.37 mg/kg/injection, schedule: Q01DX009 (ip), vehicle: saline",106 % of control
same,T/C,"dose: 0.7 mg/kg/injection, schedule: Q## X040 (ip), vehicle: saline",106 % of control
same,T/C,"dose: 0.75 mg/kg/injection, schedule: Q01DX009 (ip), vehicle: saline",117 % of control
same,T/C,"dose: 1.25 mg/kg/injection, schedule: Q01DX Z (ip), vehicle: carboxymethylcellulose (CMC)",93 % of control
same,T/C,"dose: 1.4 mg/kg/injection, schedule: Q## X040 (ip), vehicle: saline",118 % of control
same,T/C,"dose: 1.5 mg/kg/injection, schedule: Q01DX009 (ip), vehicle: saline",121 % of control
same,T/C,"dose: 1.5 mg/kg/injection, schedule: Q## X003 (ip), vehicle: saline",117 % of control
same,T/C,"dose: 2.0 mg/kg/injection, schedule: Q01DX009 (ip), vehicle: Klucel (hydroxypropylcellulose) (HPC)",120 % of control
same,T/C,"dose: 2.0 mg/kg/injection, schedule: Q01DX009 (ip), vehicle: saline",165 % of control
same,T/C,"dose: 2.0 mg/kg/injection, schedule: Q01DX009 (sc), vehicle: saline",109 % of control
same,T/C,"dose: 2.0 mg/kg/injection, schedule: Q01DX015 (ip), vehicle: saline",115 % of control and 116 % of control and 121 % of control
same,T/C,"dose: 2.2 mg/kg/injection, schedule: Q01DX007 (ip), vehicle: carboxymethylcellulose (CMC)",123 % of control
same,T/C,"dose: 2.5 mg/kg/injection, schedule: Q01DX Z (ip), vehicle: carboxymethylcellulose (CMC)",97 % of control
same,T/C,"dose: 3.0 mg/kg/injection, schedule: Q01DX001 (ip), vehicle: saline",116 % of control
same,T/C,"dose: 3.0 mg/kg/injection, schedule: Q## X003 (ip), vehicle: saline",112 % of control
same,T/C,"dose: 3.0 mg/kg/injection, schedule: Q## X008 (ip), vehicle: saline",116 % of control
same,T/C,"dose: 3.0 mg/kg/injection, schedule: Q## X040 (ip), vehicle: saline",119 % of control
same,T/C,"dose: 3.35 mg/kg/injection, schedule: Q01DX015 (ip), vehicle: carboxymethylcellulose (CMC)",121 % of control
same,T/C,"dose: 3.5 mg/kg/injection, schedule: Q01DX015 (ip), vehicle: saline",123 % of control
same,T/C,"dose: 4.0 mg/kg/injection, schedule: Q## X024 (ip), vehicle: saline",103 % of control
same,T/C,"dose: 4.4 mg/kg/injection, schedule: Q## X004 (ip), vehicle: saline",114 % of control
same,T/C,"dose: 5.0 mg/kg/injection, schedule: Q01DX007 (ip), vehicle: carboxymethylcellulose (CMC)",156 % of control
same,T/C,"dose: 5.0 mg/kg/injection, schedule: Q01DX009 (oral), vehicle: saline",122 % of control
same,T/C,"dose: 5.0 mg/kg/injection, schedule: Q01DX015 (ip), vehicle: saline",122 % of control
same,T/C,"dose: 5.0 mg/kg/injection, schedule: Q01DX Z (ip), vehicle: carboxymethylcellulose (CMC)",123 % of control
same,T/C,"dose: 6.0 mg/kg/injection, schedule: Q01DX009 (ip), vehicle: saline",151 % of control and 164 % of control
same,T/C,"dose: 6.0 mg/kg/injection, schedule: Q01DX015 (ip), vehicle: carboxymethylcellulose (CMC)",156 % of control
same,T/C,"dose: 6.0 mg/kg/injection, schedule: Q## X008 (ip), vehicle: saline",112 % of control
same,T/C,"dose: 6.7 mg/kg/injection, schedule: Q## X004 (ip), vehicle: saline",121 % of control
same,T/C,"dose: 7.5 mg/kg/injection, schedule: Q01DX007 (ip), vehicle: carboxymethylcellulose (CMC)",158 % of control
same,T/C,"dose: 7.5 mg/kg/injection, schedule: Q01DX015 (ip), vehicle: carboxymethylcellulose (CMC)",163 % of control
same,T/C,"dose: 8.0 mg/kg/injection, schedule: Q01DX009 (ip), vehicle: saline",171 % of control and 176 % of control
same,T/C,"dose: 8.0 mg/kg/injection, schedule: Q01DX015 (ip), vehicle: saline",150 % of control and 153 % of control
same,T/C,"dose: 8.0 mg/kg/injection, schedule: Q## X008 (ip), vehicle: saline",104 % of control
same,T/C,"dose: 8.0 mg/kg/injection, schedule: Q## X016 (ip), vehicle: saline",96 % of control
same,T/C,"dose: 8.0 mg/kg/injection, schedule: Q## X024 (ip), vehicle: saline",111 % of control
same,T/C,"dose: 10.0 mg/kg/injection, schedule: Q01DX Z (ip), vehicle: carboxymethylcellulose (CMC)",151 % of control and 169 % of control
same,T/C,"dose: 11.25 mg/kg/injection, schedule: Q01DX007 (ip), vehicle: carboxymethylcellulose (CMC)",150 % of control
same,T/C,"dose: 12.0 mg/kg/injection, schedule: Q01DX009 (ip), vehicle: saline",153 % of control and 167 % of control
same,T/C,"dose: 12.0 mg/kg/injection, schedule: Q02DX008 (ip), vehicle: saline",154 % of control
same,T/C,"dose: 15.0 mg/kg/injection, schedule: Q01DX001 (ip), vehicle: saline",123 % of control
same,T/C,"dose: 15.0 mg/kg/injection, schedule: Q## X003 (ip), vehicle: saline",162 % of control
same,T/C,"dose: 15.0 mg/kg/injection, schedule: Q## X004 (ip), vehicle: saline",150 % of control
same,T/C,"dose: 16.0 mg/kg/injection, schedule: Q02DX008 (ip), vehicle: saline",158 % of control
same,T/C,"dose: 16.0 mg/kg/injection, schedule: Q## X008 (ip), vehicle: saline",112 % of control
same,T/C,"dose: 16.0 mg/kg/injection, schedule: Q## X016 (ip), vehicle: saline",115 % of control
same,T/C,"dose: 16.0 mg/kg/injection, schedule: Q## X040 (ip), vehicle: saline",167 % of control
same,T/C,"dose: 20.0 mg/kg/injection, schedule: Q01DX001 (ip), vehicle: carboxymethylcellulose (CMC)",165 % of control
same,T/C,"dose: 20.0 mg/kg/injection, schedule: Q01DX001 (sc), vehicle: saline",109 % of control
same,T/C,"dose: 20.0 mg/kg/injection, schedule: Q## X003 (ip), vehicle: saline",192 % of control
same,T/C,"dose: 20.0 mg/kg/injection, schedule: Q## X032 (ip), vehicle: saline",124 % of control
same,T/C,"dose: 22.5 mg/kg/injection, schedule: Q## X004 (ip), vehicle: saline",167 % of control
same,T/C,"dose: 24.0 mg/kg/injection, schedule: Q01DX001 (ip), vehicle: saline",154 % of control
same,T/C,"dose: 26.0 mg/kg/injection, schedule: Q01DX001 (ip), vehicle: carboxymethylcellulose (CMC)",151 % of control
same,T/C,"dose: 27.0 mg/kg/injection, schedule: Q01DX001 (oral), vehicle: saline",116 % of control
same,T/C,"dose: 30.0 mg/kg/injection, schedule: Q01DX001 (ip), vehicle: carboxymethylcellulose (CMC)",157 % of control
same,T/C,"dose: 30.0 mg/kg/injection, schedule: Q01DX001 (ip), vehicle: saline",150 % of control and 162 % of control
same,T/C,"dose: 30.0 mg/kg/injection, schedule: Q01DX001 (sc), vehicle: saline",121 % of control
same,T/C,"dose: 30.0 mg/kg/injection, schedule: Q01DX Z (ip), vehicle: carboxymethylcellulose (CMC)",95 % of control
same,T/C,"dose: 30.0 mg/kg/injection, schedule: Q## X003 (ip), vehicle: saline",182 % of control
same,T/C,"dose: 32.0 mg/kg/injection, schedule: Q02DX008 (ip), vehicle: saline",111 % of control
same,T/C,"dose: 32.0 mg/kg/injection, schedule: Q## X008 (ip), vehicle: saline",185 % of control
same,T/C,"dose: 32.0 mg/kg/injection, schedule: Q## X016 (ip), vehicle: saline",151 % of control
same,T/C,"dose: 32.0 mg/kg/injection, schedule: Q## X032 (ip), vehicle: saline",168 % of control and 169 % of control
same,T/C,"dose: 36.0 mg/kg/injection, schedule: Q01DX009 (oral), vehicle: saline",106 % of control
same,T/C,"dose: 40.0 mg/kg/injection, schedule: Q01DX001 (oral), vehicle: saline",118 % of control
same,T/C,"dose: 40.0 mg/kg/injection, schedule: Q## X032 (ip), vehicle: saline",166 % of control
same,T/C,"dose: 45.0 mg/kg/injection, schedule: Q01DX001 (ip), vehicle: carboxymethylcellulose (CMC)",157 % of control
same,T/C,"dose: 48.0 mg/kg/injection, schedule: Q01DX009 (oral), vehicle: saline",90 % of control
same,T/C,"dose: 48.0 mg/kg/injection, schedule: Q## X008 (ip), vehicle: saline",191 % of control
same,T/C,"dose: 60.0 mg/kg/injection, schedule: Q01DX001 (oral), vehicle: saline",124 % of control
same,T/C,"dose: 64.0 mg/kg/injection, schedule: Q## X008 (ip), vehicle: saline",204 % of control and 229 % of control
same,T/C,"dose: 64.0 mg/kg/injection, schedule: Q## X024 (ip), vehicle: saline",88 % of control
same,T/C,"dose: 90.0 mg/kg/injection, schedule: Q01DX001 (oral), vehicle: saline",124 % of control
same,T/C,"dose: 90.0 mg/kg/injection, schedule: Q01DX001 (sc), vehicle: saline",118 % of control
same,T/C,"dose: 96.0 mg/kg/injection, schedule: Q## X008 (ip), vehicle: saline",114 % of control
same,T/C,[1],117 % of control
same,T/C,"dose: 120.0 mg/kg/injection, schedule: Q01DX001 (ip), vehicle: saline",113 % of control and 87 % of control
same,T/C,"dose: 180.0 mg/kg/injection, schedule: Q01DX001 (oral), vehicle: saline",101 % of control
same,T/C,"dose: 360.0 mg/kg/injection, schedule: Q01DX001 (oral), vehicle: saline",92 % of control
COc1ccc(C(CC(=O)O)c2ccccc2)cc1 (stereo not drawn),T/C,[1],94 % of control
same,T/C,"dose: 200.0 mg/kg/injection, schedule: Q01DX001 (ip), vehicle: saline",93 % of control
same,T/C,"dose: 400.0 mg/kg/injection, schedule: Q01DX001 (ip), vehicle: saline",100 % of control
